The structures appear in SMILES notation.

One assay deals with Plasmodium falciparum. Kind of assay: Antimalarial activity against Plasmodium falciparum Dd2 at 10 uM incubated for 72 hrs by SYBR green dye based assay relative to control. Type of assay: functional.
Settings: not given
`CN1[C@H](c2ccc(Cl)cc2Cl)c2[nH]c3ccccc3c2C[C@H]1C(=O)O` registered an inhibition at 10 µM of 65%.

System in the next assay: not listed separately
Kind of assay: Inhibition of Plasmodium falciparum IspD.
Settings: not given
`O=C(O)[C@@H]1Cc2c([nH]c3ccccc23)[C@@H](c2ccccc2)N1` had an IC50 above 5 µM. The same measure, in the same setting: to `O=C(O)[C@@H]1Cc2c([nH]c3ccccc23)[C@@H](c2ccccc2Cl)N1` belongs 1 µM; to `O=C(O)[C@@H]1Cc2c([nH]c3ccccc23)[C@@H](c2ccc(Cl)cc2)N1`, 0.51 µM; to `Cc1ccc([C@H]2N[C@H](C(=O)O)Cc3c2[nH]c2ccccc32)c(Cl)c1`, 0.082 µM. On the same count and under the same terms, to `Cc1cc(Cl)ccc1[C@H]1N[C@H](C(=O)O)Cc2c1[nH]c1ccccc21` belongs 0.26 µM. On the same count and under the same terms, to `Cc1ccc([C@H]2N[C@H](C(=O)O)Cc3c2[nH]c2ccccc32)c(C)c1` belongs 1 µM; to `O=C(O)[C@@H]1Cc2c([nH]c3ccccc23)[C@@H](c2ccc(Br)cc2Cl)N1`, 0.034 µM.

The subject of another assay is Plasmodium falciparum. Kind of assay: Antimalarial activity against Plasmodium falciparum Dd2 incubated for 72 hrs by SYBR green dye based assay. Type of assay: functional, organism-based. To be noted: Dd2, 72 h.
As to `Cc1ccc([C@H]2N[C@H](C(=O)O)Cc3c2[nH]c2ccccc32)c(Cl)c1`, the midpoint of the response, the EC50, lay at 0.41 µM.

Take `Cc1ccc([C@H]2N[C@H](C(=O)O)Cc3c2[nH]c2ccccc32)c(C)c1`: it took 10 µM to reach a half-maximal effect (EC50). Still for that read-out and setting: to `O=C(O)[C@@H]1Cc2c([nH]c3ccccc23)[C@]2(CCc3ccccc32)N1` belongs above 10 µM. Same read-out and setting: to `C[C@]1(c2ccc(Cl)cc2Cl)N[C@H](C(=O)O)Cc2c1[nH]c1ccccc21` belongs above 10 µM; to `O=C(O)[C@@H]1Cc2c([nH]c3ccccc23)CN1Cc1ccc(Cl)cc1Cl`, above 10 µM; to `C[C@]1(c2ccccc2Cl)N[C@H](C(=O)O)Cc2c1[nH]c1ccccc21`, above 10 µM.

Consider `C[C@]1(c2ccccc2)N[C@H](C(=O)O)Cc2c1[nH]c1ccccc21`, for which the EC50 was above 10 µM.

`C[C@]1(c2ccc(Cl)cc2)N[C@H](C(=O)O)Cc2c1[nH]c1ccccc21` had an EC50 above 10 µM. Consider `Cn1c2c(c3ccccc31)C[C@@H](C(=O)O)N[C@@H]2c1ccc(Cl)cc1Cl`, for which the EC50 stood at 8 µM.

`O=C(O)[C@H](Cc1c[nH]c2ccccc12)NCc1ccc(Cl)cc1Cl` returned an EC50 above 10 µM. Same read-out and setting: to `O=C(O)[C@@H]1Cc2c([nH]c3ccccc23)[C@@H](c2ccc(Br)cc2Cl)N1` belongs 0.32 µM; to `C[C@@]1(C(=O)O)Cc2c([nH]c3ccccc23)[C@@H](c2ccc(Cl)cc2Cl)N1` (racemic), above 10 µM.

The values are drawn from ChEMBL document CHEMBL4699488, “Probing the B- & C-rings of the antimalarial tetrahydro-β-carboline MMV008138 for steric and conformational constraints” (Bioorg Med Chem Lett, 2020).
